Laboratory results taken from publication PMC9501232, “Novel 4-Azapregnene Derivatives as Potential Anticancer Agents: Synthesis, Antiproliferative Activity and Molecular Docking Studies” (Molecules, 2022).

Assays:
[1] = tested on: NHDF cells (Normal Human Dermal Fibroblasts); test: MTT cell proliferation assay, NHDF; format: cell-based; settings: 30 µM, 72 h, average ± SD
Description: (§1) Cell lines, namely LNCaP, PC-3, T47-D and NHDF were obtained from American Type Culture Collection (ATCC; Manassas, VA, USA) and cultured in 75 cm^2 culture flasks at 37 °C in a humidified air incubator with 5% CO2. LNCaP, PC-3 and T47-D cells, which were used in passages 20th to 27th, 25th to 29th and 10th to 15th, respectively, were cultured in RPMI 1640 medium (Sigma-Aldrich, Inc., St. Louis, MO, USA) with 10% fetal bovine serum (FBS; Sigma-Aldrich, Inc. St. Louis, MO, USA) and 1% of the antibiotic mixture of 10,000 IU/mL penicillin G and […] of streptomycin (Sp, Sigma-Aldrich, Inc. St. Louis, MO, USA). Finally, NHDF cells (Normal Human Dermal Fibroblasts) were cultured in RPMI 1640 medium supplemented with 10% FBS, 2 mM L-glutamine, 10 mM HEPES, 1 mM sodium pyruvate and 1% of an antibiotic/antimycotic mixture (10,000 U/mL penicillin G, 100 mg/mL streptomycin and 25 µg/mL amphotericin B) (Ab; Sigma-Aldrich, Inc. St. Louis, MO, USA), and these cells were used in passages 10 to 12. For all cell types, the medium was renewed every 2–3 days until cells reach nearly the confluence state. Then, they were detached gently by trypsinization (trypsin-EDTA solution: 0.125 g/L of trypsin and 0.02 g/L of EDTA).
(§2) All the stock solutions were prepared by dissolving compounds in dimethyl sulfoxide (DMSO; Sigma-Aldrich, Inc., St. Louis, MO, USA) at 10 mM and stored at 4 °C. From these solutions, the several diluted compounds solutions in different concentrations were freshly prepared in a complete culture medium before each experiment.
(§3) As previously referred, cells were trypsinized after reaching a near confluence state and counted by the trypan blue exclusion assay in a Neubauer chamber. Then, 100 µL of cell suspension/well with an initial density of 2 × 10^4 cells/mL were seeded in 96-well culture plates (Nunc, Apogent, Denmark) and left to adhere for 48 h. After cells adherence, the medium was replaced by the distinct solutions of the compounds in the study (30 µM for preliminary studies and 0.01, 0.1, 1, 10, 50 and 100 µM for concentration–response studies) in the appropriate medium for approximately 72 h. 5-FU and finasteride were used as positive controls and untreated cells were used as the negative control. Each experiment was performed in quadruplicate and independently performed at least two times. The in vitro antiproliferative effects were evaluated by the MTT assay (Sigma-Aldrich, Inc. St. Louis, USA). After the incubation period, the medium was removed and 100 µL of phosphate buffer saline (NaCl 137 mM, KCl 2.7 mM, Na2HPO4 10 mM and KH2PO4 1.8 mM in deionized water and pH adjusted to 7.4) were used to wash the cells. Then, 100 µL of the MTT solution (5 mg/mL) was prepared in the appropriate serum-free medium and was added to each well, followed by incubation for 4 h at 37 °C. Hereafter, the MTT containing medium was removed and the formazan crystals were dissolved in DMSO. Then the absorbance was measured at 570 nm using a microplate spectrophotometer BIO-RAD xMarkTM. Cell viability values were expressed as percentages relative to the absorbance determined in the cells used as negative controls.
(§4) The data are expressed as a mean ± standard deviation (SD) and differences between groups were considered statistically significant when p < 0.05. The IC50 values were determined through sigmoidal fitting analysis with variable slope and considering a 95% confidence level. All data shown are representative of at least two independent experiments.

LNCaP cells [2] = test: Microscopic cell morphology observation; format: cell-based, human; settings: 24 and 72 h of treatment
Description: In our previous work, 16E-arylidene-4-azaandrost-5-ene derivatives were synthesized, their antiproliferative effects were evaluated and further studies were performed with the most promising steroid in LNCaP cells. Due to the similarity of 16E-arylidene-4-azaandrostenes and these novel 21E-arylidene-4-azapregnene derivatives, identical studies in this cell line were performed, namely a flow cytometry assay and microscopic cell morphology observation. To assess the viability of LNCaP cells when exposed to steroid 3g, a flow cytometry assay after PI staining was performed. Cells were treated with 3g and 5-FU during 24 and 72 h, and then a microscopic cell observation was performed to assess the possible morphological alterations and cell density changes triggered by incubation with 3g and compare with controls (Figure 6).
Similar to the previous study, the analysis of cell viability was accomplished by flow cytometry after staining dead cells with propidium iodide (PI; Invitrogen, Carlsbad, USA). Succinctly, 1 mL of a cell suspension was seeded in 12-well culture plates (initial cell density of 5 × 10^4 cells/mL of LNCaP cells for 24 h assay and 2 × 10^4 cells/mL of the same cell line for 72 h assay) in a complete culture medium. […] The percentages of each region were calculated for a total of R1 + R2 + R3. […]

LNCaP cells [3] = test: MTT cell proliferation assay, LNCaP; format: cell-based, human; settings: 30 µM, 72 h, average ± SD
Description: as §1, §2, §3, §4

T47-D cells = test: MTT cell proliferation assay, T47-D; format: cell-based, human; settings: 30 µM, 72 h, average ± SD
Description: as §1, §2, §3, §4

PC-3 cells = test: MTT cell proliferation assay, PC-3; format: cell-based, human; settings: PC-3, 30 µM, 72 h, average ± SD
Description: as §1, §2, §3, §4

CC(C)(C)NC(=O)[C@H]1CC[C@H]2[C@@H]3CC[C@H]4NC(=O)C=C[C@]4(C)[C@H]3CC[C@]12C [Finasteride, reference compound]
MTT screening, cell proliferation [1]: 62.8 ± 5.9 percentage of negative control
Cell morphology and cell density (LNCaP cells [2]): cell density reduction and the preservation of healthy cells morphology
MTT screening, cell proliferation (LNCaP cells [3]): 88.5 ± 2.4 percentage of negative control
MTT screening, cell proliferation (T47-D cells): 103.5 ± 17.8 percentage of negative control
MTT screening, cell proliferation (PC-3 cells): 78.8 ± 8.7 percentage of negative control
